IC50 data for 18 compounds are collected here from US20260325533A1, “CDK INHIBITOR COMPOUNDS” (ALEKSIA THERAPEUTICS, INC., priority 2023, published 2026).

Holding throughout (format): biochemical
One assay concerns the target CDK2/CCNE1 (Homo sapiens, UniProt P24941). Put plainly: CDK2 homogeneous time-resolved fluorescence (HTRF) kinase assay. Conditions: CDK2/CCNE. In outline: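 An HTRF format measures CDK2/CCNE1 (3 nM) phosphorylating a 4E-BP1 Thr37/46 peptide at high (1 mM) ATP. Reactions run one hour at 23 °C, then EDTA-quenched and probed with Eu-labelled phospho-specific antibody.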
A general note: TR-FRET usually uses a lanthanide donor and a delayed reading to cut background.

The target of a further assay is CDK1/CCNB1 (Homo sapiens, UniProt P06493). Put plainly: CDK1 homogeneous time-resolved fluorescence (HTRF) kinase assay. Conditions: CDK1/CCNB. In outline: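 HTRF assay with 0.5 nM CDK1/CCNB1, 1 mM ATP, 50 nM ULight-eIF4E-BP1 (Thr37/46) peptide; compound preincubated 20 min, reaction 60 min at 23 °C, EDTA stop, Eu-anti-phospho antibody detection. 11-point half-log titration from 10 μM, 1% DMSO; IC50 from 665 nm or 665/615 signal.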
Sequence of CDK1/CCNB1 (P06493 whole entry): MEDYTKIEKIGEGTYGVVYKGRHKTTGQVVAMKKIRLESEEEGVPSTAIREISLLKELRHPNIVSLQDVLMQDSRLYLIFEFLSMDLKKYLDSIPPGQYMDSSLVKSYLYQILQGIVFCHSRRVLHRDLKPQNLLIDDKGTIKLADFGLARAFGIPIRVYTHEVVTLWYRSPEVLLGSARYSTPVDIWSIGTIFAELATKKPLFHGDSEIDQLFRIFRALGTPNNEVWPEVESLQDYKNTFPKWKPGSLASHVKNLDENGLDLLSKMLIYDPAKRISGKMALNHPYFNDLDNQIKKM
Sequence of CDK1/CCNB1 (P14635 whole entry partner): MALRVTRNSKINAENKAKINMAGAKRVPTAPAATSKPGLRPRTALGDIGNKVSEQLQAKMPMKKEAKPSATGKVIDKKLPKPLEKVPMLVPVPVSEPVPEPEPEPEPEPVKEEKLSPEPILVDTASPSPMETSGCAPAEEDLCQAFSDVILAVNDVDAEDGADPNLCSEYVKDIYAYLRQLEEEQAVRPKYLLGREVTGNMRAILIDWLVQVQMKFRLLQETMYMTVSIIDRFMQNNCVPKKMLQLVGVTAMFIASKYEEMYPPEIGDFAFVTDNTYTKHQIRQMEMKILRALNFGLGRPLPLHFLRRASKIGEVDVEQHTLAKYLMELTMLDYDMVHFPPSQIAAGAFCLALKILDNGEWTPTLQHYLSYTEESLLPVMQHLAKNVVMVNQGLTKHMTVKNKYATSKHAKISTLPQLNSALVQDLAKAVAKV

In another assay the target is CDK4/CCND3 (Homo sapiens, UniProt P11802). The assay is described as follows: CDK4 homogeneous time-resolved fluorescence (HTRF) kinase assay. Conditions: CDK4/CCND. In outline: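 TR-FRET read (665 nm, or 665/615 ratio) of 4E-BP1 Thr37/46 phosphorylation by 1.5 nM CDK4/CCND3 at 1 mM ATP, 50 nM ULight peptide, 1% DMSO. Reaction ran 60 min at 23 °C after 20 min compound–enzyme preincubation. IC50 from 11-point half-log dilutions, top 10 μM.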
Sequence of CDK4/CCND3 (P11802 whole entry): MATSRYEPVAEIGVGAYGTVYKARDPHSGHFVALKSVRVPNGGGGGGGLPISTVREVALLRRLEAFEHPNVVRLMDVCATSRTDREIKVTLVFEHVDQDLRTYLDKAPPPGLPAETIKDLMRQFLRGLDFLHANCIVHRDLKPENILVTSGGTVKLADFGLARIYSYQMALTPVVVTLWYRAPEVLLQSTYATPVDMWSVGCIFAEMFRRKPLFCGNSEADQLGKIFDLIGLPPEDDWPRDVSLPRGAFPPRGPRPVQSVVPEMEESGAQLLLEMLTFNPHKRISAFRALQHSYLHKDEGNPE
Sequence of CDK4/CCND3 (P30281 whole entry partner): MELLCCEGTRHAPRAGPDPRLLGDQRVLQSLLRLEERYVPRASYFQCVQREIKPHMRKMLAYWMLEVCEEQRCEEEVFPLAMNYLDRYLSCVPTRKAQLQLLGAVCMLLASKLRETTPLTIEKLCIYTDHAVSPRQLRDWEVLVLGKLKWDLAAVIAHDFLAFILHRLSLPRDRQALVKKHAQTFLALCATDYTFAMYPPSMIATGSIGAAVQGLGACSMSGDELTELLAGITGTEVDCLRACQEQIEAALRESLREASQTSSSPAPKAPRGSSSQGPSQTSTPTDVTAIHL

A further assay deals with CDK6/CCND1 (Homo sapiens, UniProt Q00534). The assay is described as follows: CDK6 homogeneous time-resolved fluorescence (HTRF) kinase assay. Conditions: CDK6/CCND. In outline: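 Assay conditions: HEPES buffer containing 10 mM MgCl2, 1 mM EGTA, 2 mM DTT, 0.01% Tween 20; 1 nM CDK6/CCND1, 50 nM peptide substrate, 1 mM ATP. Detection after 60 min reaction used 2 nM europium antibody with 340 nm excitation. Potency fitted from half-log series, 11 points.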
Sequence of CDK6/CCND1 (Q00534 whole entry): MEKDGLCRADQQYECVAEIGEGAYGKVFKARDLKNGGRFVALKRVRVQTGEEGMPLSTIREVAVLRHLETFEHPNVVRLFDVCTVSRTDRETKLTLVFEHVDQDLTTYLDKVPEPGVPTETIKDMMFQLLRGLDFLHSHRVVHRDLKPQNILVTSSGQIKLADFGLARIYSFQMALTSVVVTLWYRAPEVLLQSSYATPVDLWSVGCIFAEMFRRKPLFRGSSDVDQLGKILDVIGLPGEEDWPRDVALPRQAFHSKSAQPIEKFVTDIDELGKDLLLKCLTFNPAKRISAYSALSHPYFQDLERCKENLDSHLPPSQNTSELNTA
Sequence of CDK6/CCND1 (P24385 whole entry partner): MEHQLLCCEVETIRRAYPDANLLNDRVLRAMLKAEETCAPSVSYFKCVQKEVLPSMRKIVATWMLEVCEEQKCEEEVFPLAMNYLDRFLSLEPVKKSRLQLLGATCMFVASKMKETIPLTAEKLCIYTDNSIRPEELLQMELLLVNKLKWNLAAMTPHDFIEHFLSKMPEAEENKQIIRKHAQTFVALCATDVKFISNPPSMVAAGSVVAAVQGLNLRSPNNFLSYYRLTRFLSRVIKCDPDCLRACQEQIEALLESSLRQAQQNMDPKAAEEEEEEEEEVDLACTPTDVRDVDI

[1] abbreviates: x = IC50 >250 nM, read-out: CDK1/CCNB IC50 (>250 nM column).
Setting [2] is: x = IC50 >250 nM, read-out: CDK4/CCND IC50 (>250 nM column).
The mark [3] stands for this setting: x = IC50 >250 nM, read-out: CDK6/CCND IC50 (>250 nM column).
[4] abbreviates: x = IC50 <25 nM, read-out: CDK2/CCNE IC50 (<25 nM).
Setting [5] is: x = IC50 25-250 nM, read-out: CDK4/CCND IC50 (25-250 nM).
The mark [6] stands for this setting: x = IC50 25-250 nM, read-out: CDK6/CCND IC50 (25-250 nM).
Where [7] appears, read: x = IC50 25-250 nM, read-out: CDK1/CCNB IC50 (25-250 nM).
[8] abbreviates: <25 nM, read-out: CDK2/CCNE IC50 <25 nM.
The mark [9] stands for this setting: 25-250 nM marked x, read-out: CDK1/CCNB IC50 25-250 nM.
[10] abbreviates: <25 nM, read-out: CDK4/CCND IC50 <25 nM.
[11] abbreviates: <25 nM, read-out: CDK6/CCND IC50 <25 nM.
Where [12] appears, read: 25-250 nM marked x, read-out: CDK2/CCNE IC50 25-250 nM.
Where [13] appears, read: >250 nM marked x, read-out: CDK1/CCNB IC50 >250 nM.
Setting [14] is: 25-250 nM marked x, read-out: CDK4/CCND IC50 25-250 nM.
[15] abbreviates: 25-250 nM marked x, read-out: CDK6/CCND IC50 25-250 nM.

The structures appear in SMILES notation. Read-outs that look alike come from different tables or passages of the source.

Consider `CC(C)(O)Cn1cc2ccc(C#Cc3nccc4cnc(Nc5ccc(S(C)(=O)=O)cc5)cc34)cc2n1` (single isomer, unassigned) [Example 577, 2-Methyl-1-(6-((7-((4-(methylsulfonyl)phenyl)amino)-2,6-naphthyridin-1-yl)ethynyl)-2H-indazol-2-yl)propan-2-ol], for which the IC50 at CDK2/CCNE1 (x = IC50 >250 nM, read-out: CDK2/CCNE IC50 (>250 nM column)) was greater than 250 nM; on CDK1/CCNB1 (setting [1]), greater than 250 nM; at CDK4/CCND3 (setting [2]) it was greater than 250 nM; on CDK6/CCND1 (setting [3]), greater than 250 nM.

Take `CS(=O)(=O)c1ccc(Nc2cc3c(-c4ccc5c(cnn5CC(O)(C(F)(F)F)C(F)(F)F)c4Cl)nccc3cn2)cc1` (single isomer, unassigned) [Example 587, 2-((4-chloro-5-(7-((4-(methylsulfonyl)phenyl)amino)-2,6-naphthyridin-1-yl)-1H-indazol-1-yl)methyl)-1,1,1,3,3,3-hexafluoropropan-2-ol]: the IC50 at CDK2/CCNE1 (setting [4]) is less than 25 nM; on CDK1/CCNB1 (setting [1]), greater than 250 nM; at CDK4/CCND3 (setting [2]) it was greater than 250 nM; at CDK6/CCND1 (setting [3]), greater than 250 nM.

For `CC1NCCc2cc(-c3nccc4cnc(Nc5ccc(S(C)(=O)=O)cc5)cc34)ccc21` (single isomer, unassigned) [Example 599, 5-(1-methyl-1,2,3,4-tetrahydroisoquinolin-6-yl)-N-(4-(methylsulfonyl)phenyl)-2,6-naphthyridin-3-amine], the IC50 on CDK2/CCNE1 (x = IC50 25-250 nM, read-out: CDK2/CCNE IC50 (25-250 nM)) was 25 to 250 nM; at CDK1/CCNB1 (setting [1]), greater than 250 nM; at CDK4/CCND3 (setting [2]), greater than 250 nM; at CDK6/CCND1 (setting [3]), greater than 250 nM.

For the compound `Cc1c(-c2nccc3cnc(Nc4ccc(S(C)(=O)=O)cc4)cc23)ccc2c1cnn2CC(C)O` (single isomer, unassigned) [Example 614, 1-(4-methyl-5-(7-((4-(methylsulfonyl)phenyl)amino)-2,6-naphthyridin-1-yl)-1H-indazol-1-yl)propan-2-ol], the IC50 on CDK2/CCNE1 (setting [4]) is less than 25 nM; on CDK1/CCNB1 (setting [1]), greater than 250 nM; on CDK4/CCND3 (setting [5]), 25 to 250 nM; at CDK6/CCND1 (setting [6]) it was 25 to 250 nM.

Consider `CC1(O)C=C(c2nccc3cnc(Nc4ccc(S(C)(=O)=O)cc4)cc23)CCC1` (single isomer, unassigned) [Example 625, 1-methyl-3-(7-((4-(methylsulfonyl)phenyl)amino)-2,6-naphthyridin-1-yl)cyclohex-2-en-1-ol], for which the IC50 was less than 25 nM at CDK2/CCNE1 (setting [4]), 25 to 250 nM at CDK1/CCNB1 (setting [7]), greater than 250 nM on CDK4/CCND3 (setting [2]) and 25 to 250 nM on CDK6/CCND1 (setting [6]).

With `Cc1c(-c2nccc3cnc(Nc4ccc(S(C)(=O)=O)cc4)cc23)ccc2c1cnn2CC(C)(C)O` (single isomer, unassigned) [Example 674, 2-methyl-1-(4-methyl-5-(7-((4-(methylsulfonyl)phenyl)amino)-2,6-naphthyridin-1-yl)-1H-indazol-1-yl)propan-2-ol], the IC50 on CDK2/CCNE1 (setting [4]) is less than 25 nM; at CDK1/CCNB1 (setting [7]), 25 to 250 nM; at CDK4/CCND3 (setting [5]), 25 to 250 nM; at CDK6/CCND1 (setting [6]) it was 25 to 250 nM.

In the case of `CS(=O)(=O)N1CCC(Nc2cc3c(N4CCCCC4)nccc3cn2)CC1` [Ex 27, N-(1-(methylsulfonyl)piperidin-4-yl)-5-(piperidin-1-yl)-2,6-naphthyridin-3-amine], the IC50 is less than 25 nM at CDK2/CCNE1 (setting [8]), 25 to 250 nM at CDK1/CCNB1 (setting [9]), less than 25 nM on CDK4/CCND3 (setting [10]) and less than 25 nM at CDK6/CCND1 (setting [11]).

Regarding `CN1CCC(C2CCN(c3nccc4cnc(NC5CCN(S(C)(=O)=O)CC5)cc34)CC2)CC1` [Ex 28, 5-(1'-methyl-[4,4'-bipiperidin]-1-yl)-N-(1-(methylsulfonyl)piperidin-4-yl)-2,6-naphthyridin-3-amine], the IC50 at CDK2/CCNE1 (setting [12]) was 25 to 250 nM; at CDK1/CCNB1 (setting [13]), greater than 250 nM; on CDK4/CCND3 (setting [14]), 25 to 250 nM; on CDK6/CCND1 (setting [11]), less than 25 nM.

As to `CN1CCN(c2nccc3cnc(NC4CCN(S(C)(=O)=O)CC4)cc23)CC1` [Ex 29, 5-(4-methylpiperazin-1-yl)-N-(1-(methylsulfonyl)piperidin-4-yl)-2,6-naphthyridin-3-amine], the IC50 on CDK2/CCNE1 (setting [12]) was 25 to 250 nM; on CDK1/CCNB1 (setting [13]) it was greater than 250 nM; at CDK4/CCND3 (setting [10]), less than 25 nM; at CDK6/CCND1 (setting [11]), less than 25 nM.

With `CC(C)N(C)c1nccc2cnc(NC3CCN(S(C)(=O)=O)CC3)cc12` [Ex 35, N1-isopropyl-N1-methyl-N7-(1-(methylsulfonyl)piperidin-4-yl)-2,6-naphthyridine-1,7-diamine], the IC50 at CDK2/CCNE1 (setting [8]) is less than 25 nM; at CDK1/CCNB1 (setting [9]), 25 to 250 nM; on CDK4/CCND3 (setting [14]), 25 to 250 nM; at CDK6/CCND1 (setting [15]), 25 to 250 nM.

In the case of `CS(=O)(=O)N1CCC(Nc2cc3c(N4CC5(CC(O)C5)C4)nccc3cn2)CC1` [Ex 36, 2-(7-((1-(methylsulfonyl)piperidin-4-yl)amino)-2,6-naphthyridin-1-yl)-2-azaspiro[3.3]heptan-6-ol], the IC50 on CDK2/CCNE1 (setting [8]) was less than 25 nM; on CDK1/CCNB1 (setting [9]) it was 25 to 250 nM; on CDK4/CCND3 (setting [14]), 25 to 250 nM; on CDK6/CCND1 (setting [15]), 25 to 250 nM.

On to `CS(=O)(=O)N1CCC(Nc2cc3c(N4CCC(C#N)CC4)nccc3cn2)CC1` [Ex 37, 1-(7-((1-(methylsulfonyl)piperidin-4-yl)amino)-2,6-naphthyridin-1-yl)piperidine-4-carbonitrile], for which the IC50 at CDK2/CCNE1 (setting [8]) was less than 25 nM; at CDK1/CCNB1 (setting [13]) it was greater than 250 nM; at CDK4/CCND3 (setting [14]), 25 to 250 nM; at CDK6/CCND1 (setting [15]), 25 to 250 nM.

On to `CS(=O)(=O)N1CCC(Nc2cc3c(N4CCC(CO)CC4)nccc3cn2)CC1` [Ex 41, (1-(7-((1-(methylsulfonyl)piperidin-4-yl)amino)-2,6-naphthyridin-1-yl)piperidin-4-yl)methanol], for which the IC50 at CDK2/CCNE1 (setting [8]) was less than 25 nM; at CDK1/CCNB1 (setting [13]), greater than 250 nM; on CDK4/CCND3 (setting [10]), less than 25 nM; on CDK6/CCND1 (setting [11]), less than 25 nM.

Take `CS(=O)(=O)N1CCC(Nc2cc3c(N4CC(C#N)C4)nccc3cn2)CC1` [Ex 43, 1-(7-((1-(methylsulfonyl)piperidin-4-yl)amino)-2,6-naphthyridin-1-yl)azetidine-3-carbonitrile]: the IC50 was less than 25 nM on CDK2/CCNE1 (setting [8]), greater than 250 nM on CDK1/CCNB1 (setting [13]), 25 to 250 nM at CDK4/CCND3 (setting [14]) and 25 to 250 nM at CDK6/CCND1 (setting [15]).

Turning to `CN(c1nccc2cnc(NC3CCN(S(C)(=O)=O)CC3)cc12)C1CCCCC1` [Ex 44, N1-cyclohexyl-N1-methyl-N7-(1-(methylsulfonyl)piperidin-4-yl)-2,6-naphthyridine-1,7-diamine], the IC50 was less than 25 nM at CDK2/CCNE1 (setting [8]), 25 to 250 nM at CDK1/CCNB1 (setting [9]), 25 to 250 nM on CDK4/CCND3 (setting [14]) and 25 to 250 nM on CDK6/CCND1 (setting [15]).

As for `CN(c1nccc2cnc(NC3CCN(S(C)(=O)=O)CC3)cc12)C1CC1` [Ex 46, N1-cyclopropyl-N1-methyl-N7-(1-(methylsulfonyl)piperidin-4-yl)-2,6-naphthyridine-1,7-diamine], the IC50 is 25 to 250 nM on CDK2/CCNE1 (setting [12]), greater than 250 nM at CDK1/CCNB1 (setting [13]), 25 to 250 nM at CDK4/CCND3 (setting [14]) and 25 to 250 nM at CDK6/CCND1 (setting [15]).

On to `CS(=O)(=O)N1CCC(Nc2cc3c(N4CCC(F)(F)CC4)nccc3cn2)CC1` [Ex 47, 5-(4,4-difluoropiperidin-1-yl)-N-(1-(methylsulfonyl)piperidin-4-yl)-2,6-naphthyridin-3-amine], for which the IC50 on CDK2/CCNE1 (setting [12]) was 25 to 250 nM; at CDK1/CCNB1 (setting [9]), 25 to 250 nM; on CDK4/CCND3 (setting [10]), less than 25 nM; at CDK6/CCND1 (setting [11]), less than 25 nM.

On to `CS(=O)(=O)N1CCC(Nc2cc3c(N4CCNC(=O)C4)nccc3cn2)CC1` [Ex 48, 4-(7-((1-(methylsulfonyl)piperidin-4-yl)amino)-2,6-naphthyridin-1-yl)piperazin-2-one], for which the IC50 was 25 to 250 nM at CDK2/CCNE1 (setting [12]), greater than 250 nM at CDK1/CCNB1 (setting [13]), less than 25 nM on CDK4/CCND3 (setting [10]) and less than 25 nM at CDK6/CCND1 (setting [11]).
